Test results published in paper PMC5773487, “Harnessing insulin- and leptin-induced oxidation of PTP1B for therapeutic development” (Nature Communications, 2018).
Entries after “also recorded” stand apart in the source; their conditions may differ.

T1: oxidized PTP1B-mut2 (L37F/K39E/K41R) (Homo sapiens, UniProt P18031, K39E/K41R/L37F)
T1 construct: PTP1B (1–321) and TCPTP (1–317) cloned in pET21b vector were used as templates; 6xHis (C); made in house; host or cells: E. coli BL21 (DE3)-RIL
T1 sequence (P18031 1-321 L37F/K39E/K41R): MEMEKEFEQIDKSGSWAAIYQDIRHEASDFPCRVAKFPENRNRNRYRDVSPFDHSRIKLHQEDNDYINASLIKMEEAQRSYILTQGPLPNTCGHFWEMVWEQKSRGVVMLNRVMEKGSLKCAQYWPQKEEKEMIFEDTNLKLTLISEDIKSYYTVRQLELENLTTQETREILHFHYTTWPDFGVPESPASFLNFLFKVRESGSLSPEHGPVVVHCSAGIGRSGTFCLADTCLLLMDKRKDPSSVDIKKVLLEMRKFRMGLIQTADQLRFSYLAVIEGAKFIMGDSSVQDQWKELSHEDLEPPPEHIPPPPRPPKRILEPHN

T2: PTP1B-OX (Homo sapiens, UniProt P18031)
T2 construct: Purified PTP1B (1–321) (100 nM) was mixed with increasing concentrations of H2O2; 6xHis (C); made in house; host or cells: E. coli BL21 (DE3)-RIL
T2 sequence (P18031 1-321): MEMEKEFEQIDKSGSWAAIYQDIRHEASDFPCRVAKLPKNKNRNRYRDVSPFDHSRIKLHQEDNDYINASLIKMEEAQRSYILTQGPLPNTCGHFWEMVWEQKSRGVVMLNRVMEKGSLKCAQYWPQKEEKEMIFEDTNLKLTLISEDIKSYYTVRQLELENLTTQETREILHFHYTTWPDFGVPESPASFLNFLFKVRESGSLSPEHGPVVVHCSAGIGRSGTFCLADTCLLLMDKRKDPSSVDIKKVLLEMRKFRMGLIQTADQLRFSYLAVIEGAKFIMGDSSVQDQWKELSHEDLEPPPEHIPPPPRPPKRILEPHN


Assays:
[1] = target: T1, oxidized PTP1B-mut2 (L37F/K39E/K41R); experiment: reduction and reactivation of oxidized PTP1B-mut2, DiFMUP, TCEP; assay type: biochemical; conditions: TCEP 5 mM
Protocol: Fig. 1 Molecular characterization of PTP1B-scFv45 interaction. a Overlay of PTP1B (gray) and TCPTP (pale blue) crystal structures, highlighting residues that are changed in generating mutant forms (-mut1 and -mut2) of the enzymes. b Increasing concentrations of recombinant HA-tagged scFv45 were incubated with oxidized wild-type (-wt) or mutant (-mut) forms of PTP1B (top panel) and oxidized wild-type or mutant forms of TCPTP (bottom panel). The protein complexes were precipitated with anti-HA-agarose beads and equivalent amounts of input, supernatant, and eluate were subjected to immunoblot analysis. Data are representative of at least three independent experiments (n = 3). c Michaelis–Menten plots for wild-type (circle), -mut1 (square), or -mut2 (triangle) forms of PTP1B (left) and TCPTP (right) are shown. […] Individual data points represent the mean obtained from three separate experiments (n = 3). d Wild-type and mutant forms of PTP1B were incubated with increasing concentrations of H2O2 and phosphatase activity was measured using DiFMUP in the absence (black bar) and presence (gray bar) of the reducing agent TCEP (5 mM). e Oxidized PTP1B-wt (circle), PTP1B-mut1 (square), or PTP1B-mut2 (triangle) were incubated with increasing concentration of scFv45 (0–1000 nM) and phosphatase activity was measured using DiFMUP as substrate in the presence of the reducing agent TCEP (5 mM). […]

[2] = tested on: leptin signaling in hepatic stellate cells; experiment: leptin signaling in hepatic stellate cells (immunoblot); assay type: cell-based, human; conditions: for effect on JAK2 phosphorylation in presence of apocynin: NOX inhibitor apocynin; for leptin-induced tyrosine phosphorylation of JAK2: chelerythrine 0–5 μM or ectopic scFv45
Protocol: Human hepatic stellate cells (HSteCs; ScienCell research laboratories, CA) were cultured according to manufacturer’s instructions. Cells were seeded on poly-L-lysine coated dishes and maintained in Stellate Cell Medium (SteCM, Cat. #5301). When cells reached 70% confluency they were split for various experiments. To study leptin signaling, HSCs were incubated in serum-free DMEM for 24 h and then stimulated with varying concentration of leptin (0, 10, 25, 50, 100, and 200 ng ml^−1) for 15 min. To study the effect of chelerythrine and protopine, serum starved cells were incubated with the compounds at varying concentrations (0–5 µM) for 1 h prior to leptin stimulation. In some groups, cells were pre-incubated (60 min) with the NADPH oxidase inhibitor apocynin (100 nM), before stimulation with leptin.

PTP1B-OX = target: T2, PTP1B-OX; experiment: reduction and reactivation of reversibly oxidized PTP1B by TCEP, DiFMUP substrate; assay type: biochemical; conditions: for inhibition of reduction and reactivation (stabilization) of PTP1B-OX: in words
Protocol: Therefore, our approach has been to adapt this assay, which we used to screen for conformation-sensor scFvs[17], now to screen for small molecules that act through a similar mechanism. Our primary screening assay tested the ability of small molecule inhibitors to antagonize the reduction and reactivation of the oxidized conformation of PTP1B, similar to that of scFv45 (Fig. 4a).
Purified PTP1B (1–321) (100 nM) was mixed with increasing concentrations of H2O2 (0.05–100 mM) in phosphatase assay buffer (50 mM HEPES, pH 7.0, 100 mM NaCl, 0.1% BSA) at room temperature for 5 min. From this reaction mixture PTP1B (10 nM) was used to monitor phosphatase activity using DiFMUP as the substrate, with or without 5 mM TCEP. Activity of each sample was compared to that of the untreated PTP1B in the presence of 5 mM TCEP.
To screen the LOPAC library against PTP1B-OX, 0.5 μl of 1 mM compound in 100% DMSO was added to 384-well plates, resulting in a final compound concentration of 10 μM for the primary screen. Recombinant PTP1B (100 nM) was reversibly oxidized and inactivated with H2O2 (4 mM). The phosphatase activity was restored by a quick buffer exchange and addition of reducing agent (TCEP). PTP1B-OX was incubated with LOPAC compounds (10 μM) in the assay buffer (50 mM HEPES pH 7.0, 100 mM NaCl, 0.005% Tween, 2 mM EDTA) and the effect of individual compound on stabilizing the reversibly oxidized conformation was assessed by the phosphatase assay under reducing conditions using DiFMUP as substrate. scFv45 was used as positive control.

Molecule	inhibition of reduction and reactivation of oxidized PTP1B-mut2 [1]	effect on JAK2 phosphorylation in presence of apocynin [2]	leptin-induced tyrosine phosphorylation of JAK2 [2]	IC50 relative to sanguinarine (PTP1B-OX)	preference for PTP1B-OX over reduced PTP1B (PTP1B-OX)	Ki (PTP1B-OX; DiFMUP substrate)	IC50 (PTP1B-OX; wild-type PTP1B-OX, reactivation by TCEP, DiFMUP substrate, read-out: IC50 against PTP1B-OX)	inhibition of reduction and reactivation (stabilization) of PTP1B-OX (PTP1B-OX)
COc1ccc2c(c[n+](C)c3c4cc5c(cc4ccc23)OCO5)c1OC [chelerythrine]	unable to inhibit; also recorded: insensitive	attenuated	dose-dependent increase	fivefold lower	at least 100 fold	5 µM	5 µM	–
CN1CCc2cc3c(cc2C(=O)Cc2ccc4c(c2C1)OCO4)OCO3 [protopine]	–	–	–	–	–	–	–	did not inhibit; also recorded: ineffective; also recorded: did not stabilize
scFv45: recombinant conformation-sensor single-chain variable fragment antibody recognizing oxidized PTP1B (antibody, V domains shown) VH: TVTLDESGGGLQAPGGALSLVCKASGFTFSSYDMGWIRQAPGKGLEYVAGITDNGRYASYGSAVDGRATISRDNGQSSVRLQLNNLRAEDTGTYYCARDDGSGWTGNSIDAWGHGTEVIVSE VL: ALTQPSSVSANPGGTVKITCSGSSSAYGYGWYQQKSPGSAPVTVIYNNNKRPSNIPSRFSGSKSGSTGTLTITGVQAEDEAVYFCGSEDSSTDAIFGAGTTLTVL	did not attenuate	abrogated	enhanced phosphorylation of JAK2	–	–	–	–	impaired in a dose-dependent manner
